Columns and labels:
PDK1 [1] = target: T1, PDK1 (Homo sapiens (Human), UniProt O15530); test: Time resolved-FRET LanthaScreen Kinase Binding Assay
Excerpt: Binding of the tracer to the kinase is detected using a europium-labeled anti-tag antibody, which binds to the kinase of interest. […] Binding of an inhibitor to the kinase competes for binding with the tracer, resulting in a loss of FRET.
Activity of compounds was routinely assessed using a secondary assay as described herein. The secondary assay was a time resolved-FRET LanthaScreen Kinase Binding Assay (Invitrogen Corporation, Carlsbad, Calif.). This assay evaluates the ability of the test compound to compete with a fluorescently-labeled tracer molecule to bind in the ATP pocket of a kinase. The assay signal is generated when a Europium-conjugated anti-His tag antibody (Invitrogen) bound to the His-tagged kinase produces a TR-FRET signal with the tracer molecule bound in the ATP pocket of the kinase. […] After 60 minutes of incubation at room temperature, the TR-FRET signal was measured on an EnVision microplate reader.
IC50 values are determined using GraphPad Prism 5 software. The data were entered as an X-Y plot into the software as percent inhibition for each concentration of the drug. The concentration values of the drug were log transformed and the nonlinear regression was carried out using the “sigmoidal dose-response (variable slope)” option within the GraphPad software to model the data and calculate IC50 values.

PDK1 [2] = target: T1, PDK1; test: PDK1 fluorometric activity assay performed by Life Technologies; format: biochemical; conditions: for IC50: fluorometric assay performed by Life Technologies (Table IV), read-out: PDK1 Kinase assays (IC50)
Method: PDK1 biochemical activity was measured by a fluorometric assay performed by Life Technologies (Grand Island, N.Y.). The assay conditions for PDK1 are as follows. The 2×PDK1/Ser/Thr-07 mixture is prepared in 50 mM Tris pH 8.5, 0.01% BRIJ-35, 10 mM MgCl2, 1 mM EGTA, 0.02% NaN3.
The kinase specificity was measured using fluorometric assays performed by Life Technologies (Grand Island, N.Y.). Assay conditions vary for each kinase and are available from Life Technologies, Grand Island, NY. For example, the assay conditions for PDK1 are as follows. The 2×PDK1/Ser/Thr-07 mixture is prepared in 50 mM Tris pH 8.5, 0.01% BRIJ-35, 10 mM MgCl2, 1 mM EGTA, 0.02% NaN3.

[3] = test system: phosphorylation of the ribosomal protein s6 in AN3-CA cells; test: In-cell western, phosphorylation of ribosomal protein s6; format: cell-based; conditions: Homo sapiens, 2 hours
Method: Cells were washed with PBS and whole cell lysates were prepared by incubating cells in […] (Invitrogen Corporation, Carlsbad, Calif.) supplemented with Protease Inhibitor Cocktail (Roche Applied Science, a division of Roche Diagnostics Corporation, Indianapolis, Ind.) and Phosphatase Inhibitor Cocktail (Roche) on ice for 30 minutes. After centrifuging the lysates at 12,000 rpm for 10 minutes at 4° C., the supernatant was collected. Protein concentration was determined using BCA Assay. The same amounts of protein were run on NuPAGE 4-12% Bis-Tris Gel, and then transferred onto a PVDF membrane. After blocking with Odyssey Blocking Buffer for 1 hour at room temperature, the membrane was incubated with primary antibodies (Cell Signaling Technology, Inc., Danvers, Massachussetts) overnight at 4° C. followed by 40 minute incubation with IRDye secondary antibody. The membrane was scanned using Odyssey Infrared Imaging System. […]
Briefly, ribosomal protein S6 was detected using differentially labeled antibodies specific for either total S6 protein or the phosphorylated form of the protein. In-cell detection with visual overlay of the signals for each antibody, e.g. total ribosomal protein s6 (red) and phospho-ribosomal protein s6 (green), allowed simultaneous detection and quantitation. Quantitation of signal intensity allowed determination of IC50 values for the test compounds.

[4] = Pharmacokinetics in mice (iv and po); format: in vivo; conditions: for Vd: read-out: Vss
Method: Pharmacokinetic parameters were determined by dosing mice by oral (“po”) and intravenous (“iv”) administration of two representative disclosed compounds.
The vehicle was 1% DMSO, 10% ethanol, 35% PEG 400, and the balance H2O. Blood was collected (about 50 μl per individual animal) into heparin-containing collection tubes, and cells were removed by centrifugation. The concentration of compound was determined at the indicated time points for each sample using mass spectrometry. […] PK parameters were calculated using WinNonLin (Pharsight Products, Saint Louis, Mo.). […] The level detected at 0.08 hr was 9 ng/ml±5.0 ng/ml.
Vehicle, sample collection and analysis is as described above.

AN3-CA cells = test: Mouse subcutaneous xenograft tumor model, tumor volume; format: in vivo, athymic nude mice; conditions: 50 mg/kg IP, daily Monday through Friday for two weeks
Method: (§1) The in vivo effects of compounds were determined in a mouse subcutaneous xenograft tumor model wherein AN3-CA cells were implanted subcutaneously into the hind flank of athymic nude mice. Briefly, seven-week-old mice were injected with 2×10^6 AN3-CA cells on the right hind flank. […] The vehicle for these studies was 20% DMSO, 20% cremophor, and 60% water. The test compound was administered on daily schedule (Monday through Friday) for two weeks at a concentration of 50 mg/kg by intraperitoneal (“IP”) injection. The mice were sacrificed and the tumors were excised for western blot analysis. Tumor volume was determined using the formula L×W2×0.5, where L is the longest length, and W is the shortest length. Tumor volume and body weight was measured twice a week.
(§2) The study was carried out as described above for 2,2-difluoro-N-(3-(5-morpholino-1H-benzo[d]imidazol-2-yl)-1H-indazol-5-yl)cyclopropanecarboxamide, except that the test compound used was 2,2-difluoro-N-(3-(5-(2-methylmorpholino)-1H-benzo[d]imidazol-2-yl)-1H-indazol-5-yl)cyclopropanecarboxamide. Data are shown in FIGS. 10A and 10B for the effect of the compound on tumor volume and body weight, respectively.

[5] = Mouse xenograft study, body weight; format: in vivo, athymic nude mice; conditions: 50 mg/kg IP, daily Monday through Friday for two weeks
Method: as §1, §2

[6] = TR-FRET Lanthascreen Kinase Binding Assay, read-out: PDK1 Kinase assays (IC50, μM) Binding Assay
[7] = tested in triplicate, FIG. 5, read-out: IC50 in PDK1 time resolved-FRET LanthaScreen Kinase Binding Assay
[8] = mouse, plasma, po (Table VIII, dose not given)

T1 sequence (O15530 whole entry): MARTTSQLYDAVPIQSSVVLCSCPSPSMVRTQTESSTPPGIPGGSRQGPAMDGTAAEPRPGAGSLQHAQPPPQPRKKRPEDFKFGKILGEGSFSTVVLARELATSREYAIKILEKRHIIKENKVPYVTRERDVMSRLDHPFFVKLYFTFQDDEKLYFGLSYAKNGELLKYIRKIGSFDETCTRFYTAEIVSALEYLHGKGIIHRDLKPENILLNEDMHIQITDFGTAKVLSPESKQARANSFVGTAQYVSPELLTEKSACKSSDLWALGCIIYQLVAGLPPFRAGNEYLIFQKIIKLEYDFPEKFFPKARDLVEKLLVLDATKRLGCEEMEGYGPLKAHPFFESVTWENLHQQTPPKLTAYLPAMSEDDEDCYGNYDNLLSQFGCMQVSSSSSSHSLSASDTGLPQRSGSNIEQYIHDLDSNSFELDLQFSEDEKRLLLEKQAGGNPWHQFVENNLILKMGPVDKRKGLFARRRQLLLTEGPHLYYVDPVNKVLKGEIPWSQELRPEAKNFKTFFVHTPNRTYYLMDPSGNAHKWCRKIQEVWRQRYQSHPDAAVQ

| IC50 (PDK1 [1]; [6]) | IC50 (PDK1 [1]; [7]) | IC50 (PDK1 [2]) | IC50 [3] | AUC(0-t) ([4]; mouse, plasma, iv, 5.0 mg/kg) | Cmax ([4]; mouse, plasma, iv, 5.0 mg/kg) | Tmax ([4]; mouse, plasma, iv, 5.0 mg/kg) | clearance ([4]; mouse, plasma, iv, 5.0 mg/kg) | half-life ([4]; mouse, plasma, iv, 5.0 mg/kg) | Vd ([4]; mouse, plasma, iv, 5.0 mg/kg) | SMILES | Effect on tumor burden (tumor volume) compared to the vehicle control (AN3-CA cells) | Effect on body weight [5] | other results |
| --- | --- | --- | --- | --- | --- | --- | --- | --- | --- | --- | --- | --- | --- |
| 0.08 µM | 0.08 µM | 0.08 µM | 0.0756 µM | 516 ng·h/mL | 1840 ng/mL | 4.8 min | 161 mL/min/kg | 24 min | 1.6 L/kg | O=C(Nc1ccc2[nH]nc(-c3nc4ccc(N5CCOCC5)cc4[nH]3)c2c1)C1CC1(F)F (stereo not drawn) [Compound 1, 2,2-difluoro-N-(3-(5-morpholino-1H-benzo[d]imidazol-2-yl)-1H-indazol-5-yl)cyclopropanecarboxamide] | modest effect on tumor burden | did not appear to cause any body weight loss | Kinase profiling activity against PDK1 (in words) (PDK1 [2]; profiling at 500 nM, FIG. 8): good activity; Cmax [4, 8]: 9 ng/mL; Tmax [4, 8]: 15 min; concentration at 0.08 hr ([4]; mouse, plasma, po, at 0.08 hr, read-out: Level detected after oral administration): 9 ng/mL; Level after oral administration (in words) ([4]; po, after 0.08 hr): below the limit of detection |
| 0.094 µM | 0.094 µM | 0.094 µM | 0.0767 µM | 1280 ng·h/mL | 4530 ng/mL | 4.8 min | 65 mL/min/kg | 24 min | 0.63 L/kg | CC1CN(c2ccc3nc(-c4n[nH]c5ccc(NC(=O)C6CC6(F)F)cc45)[nH]c3c2)CCO1 (stereo not drawn) [Compound 2, 2,2-difluoro-N-(3-(5-(2-methylmorpholino)-1H-benzo[d]imidazol-2-yl)-1H-indazol-5-yl)cyclopropanecarboxamide] | profound and significant effect on tumor burden | did not appear to cause any body weight loss | AUC(0-t) ([4]; mouse, plasma, po, 30 mg/kg): 244 ng·h/mL; Cmax ([4]; mouse, plasma, po, 30 mg/kg): 53 ng/mL; Tmax ([4]; mouse, plasma, po, 30 mg/kg): 15 min; bioavailability ([4]; mouse, plasma, po, 30 mg/kg): 19% |

From patent publication US8569511B2, “Substituted 3-(1H-benzo[d]imidazol-2-yl)-1H-indazole analogs as inhibitors of the PDK1 kinase” (University of Utah Research Foundation, priority 2011, dated 2013)
